Tests used:
Format in all cases: in vivo
[1] = test system: Amaranthus retoflexus (AMARE); assay: Post-emergence glasshouse herbicide test; conditions: post-emergence (sprayed after 8 days cultivation), 1000 g/h, evaluated after 13 days, five point scale
Method: (§1) Seeds of a variety of test species are sown in standard soil in pots (Lolium perenne (LOLPE), Solanum nigrum (SOLNI), Amaranthus retoflexus (AMARE), Setaria faberi (SETFA), Echinochloa crus-galli (ECHCG), Ipomoea hederacea (IPOHE)). After cultivation for one day (pre-emergence) or after 8 days cultivation (post-emergence) under controlled conditions in a glasshouse (at 24/16° C., day/night; 14 hours light; 65% humidity), the plants are sprayed with an aqueous spray solution derived from the formulation of the technical active ingredient in acetone/water (50:50) solution containing 0.5% Tween 20 (polyoxyethelyene sorbitan monolaurate, CAS RN 9005-64-5). Compounds are applied at 1000 g/h. The test plants are then grown in a glasshouse under controlled conditions in a glasshouse (at 24/16° C., day/night; 14 hours light; 65% humidity) and watered twice daily. After 13 days for pre and post-emergence, the test is evaluated for the percentage damage caused to the plant. The biological activities are shown in the following table on a five point scale (5=80-100%; 4=60-79%; 3=40-59%; 2=20-39%; 1=0-19%).

[2] = test system: Echinochloa crus-galli (ECHCG); assay: Post-emergence glasshouse herbicide test; conditions: post-emergence (sprayed after 8 days cultivation), 1000 g/h, evaluated after 13 days, five point scale
Method: as §1

[3] = test system: Ipomoea hederacea (IPOHE); assay: Post-emergence glasshouse herbicide test; conditions: post-emergence (sprayed after 8 days cultivation), 1000 g/h, evaluated after 13 days, five point scale
Method: as §1

[4] = test system: Lolium perenne (LOLPE); assay: Post-emergence glasshouse herbicide test; conditions: post-emergence (sprayed after 8 days cultivation), 1000 g/h, evaluated after 13 days, five point scale
Method: as §1

[5] = test system: Setaria faberi (SETFA); assay: Post-emergence glasshouse herbicide test; conditions: post-emergence (sprayed after 8 days cultivation), 1000 g/h, evaluated after 13 days, five point scale
Method: as §1

[6] = test system: Solanum nigrum (SOLNI); assay: Post-emergence glasshouse herbicide test; conditions: post-emergence (sprayed after 8 days cultivation), 1000 g/h, evaluated after 13 days, five point scale
Method: as §1

[7] = test system: Amaranthus retoflexus (AMARE); assay: Pre-emergence glasshouse herbicide test; conditions: pre-emergence (sprayed after one day cultivation), 1000 g/h, evaluated after 13 days, five point scale
Method: as §1

[8] = test system: Echinochloa crus-galli (ECHCG); assay: Pre-emergence glasshouse herbicide test; conditions: pre-emergence (sprayed after one day cultivation), 1000 g/h, evaluated after 13 days, five point scale
Method: as §1

[9] = test system: Ipomoea hederacea (IPOHE); assay: Pre-emergence glasshouse herbicide test; conditions: pre-emergence (sprayed after one day cultivation), 1000 g/h, evaluated after 13 days, five point scale
Method: as §1

[10] = test system: Lolium perenne (LOLPE); assay: Pre-emergence glasshouse herbicide test; conditions: pre-emergence (sprayed after one day cultivation), 1000 g/h, evaluated after 13 days, five point scale
Method: as §1

[11] = test system: Setaria faberi (SETFA); assay: Pre-emergence glasshouse herbicide test; conditions: pre-emergence (sprayed after one day cultivation), 1000 g/h, evaluated after 13 days, five point scale
Method: as §1

[12] = test system: Solanum nigrum (SOLNI); assay: Pre-emergence glasshouse herbicide test; conditions: pre-emergence (sprayed after one day cultivation), 1000 g/h, evaluated after 13 days, five point scale
Method: as §1

SMILES	percentage damage caused to the plant, AMARE, POST Application [1]	percentage damage caused to the plant, ECHCG, POST Application [2]	percentage damage caused to the plant, IPOHE, POST Application [3]	percentage damage caused to the plant, LOLPE, POST Application [4]	percentage damage caused to the plant, SETFA, POST Application [5]	percentage damage caused to the plant, SOLNI, POST Application [6]	percentage damage caused to the plant, AMARE, PRE Application [7]	percentage damage caused to the plant, ECHCG, PRE Application [8]	percentage damage caused to the plant, IPOHE, PRE Application [9]	percentage damage caused to the plant, LOLPE, PRE Application [10]	percentage damage caused to the plant, SETFA, PRE Application [11]	percentage damage caused to the plant, SOLNI, PRE Application [12]
Cn1nnnc1NC(=O)c1nn(C)c(=O)c(-c2cccc(Cl)c2)c1Cl [Compound 1.012]	5 (5=80-100%)	5 (5=80-100%)	3 (3=40-59%)	5 (5=80-100%)	4 (4=60-79%)	5 (5=80-100%)	5 (5=80-100%)	5 (5=80-100%)	4 (4=60-79%)	5 (5=80-100%)	5 (5=80-100%)	5 (5=80-100%)
Cn1nnnc1NC(=O)c1nn(C)c(=O)c(-c2ccc(Cl)c(Cl)c2)c1Cl [Compound 1.019]	3 (3=40-59%)	5 (5=80-100%)	4 (4=60-79%)	5 (5=80-100%)	5 (5=80-100%)	5 (5=80-100%)	5 (5=80-100%)	5 (5=80-100%)	3 (3=40-59%)	5 (5=80-100%)	5 (5=80-100%)	5 (5=80-100%)
COc1ccc(-c2c(Cl)c(C(=O)Nc3nnnn3C)nn(C)c2=O)cc1OC [Compound 1.017]	5 (5=80-100%)	5 (5=80-100%)	5 (5=80-100%)	5 (5=80-100%)	5 (5=80-100%)	5 (5=80-100%)	5 (5=80-100%)	5 (5=80-100%)	5 (5=80-100%)	5 (5=80-100%)	5 (5=80-100%)	5 (5=80-100%)
Cn1nnnc1NC(=O)c1nn(C)c(=O)c(-c2ccccc2)c1Cl [Compound 1.010]	5 (5=80-100%)	5 (5=80-100%)	4 (4=60-79%)	4 (4=60-79%)	5 (5=80-100%)	5 (5=80-100%)	5 (5=80-100%)	5 (5=80-100%)	1 (1=0-19%)	5 (5=80-100%)	5 (5=80-100%)	5 (5=80-100%)
CCOc1c(C(=O)Nc2nnnn2C)nn(C)c(=O)c1-c1ccc(Cl)c(Cl)c1 [Compound 1.032]	5 (5=80-100%)	5 (5=80-100%)	4 (4=60-79%)	4 (4=60-79%)	5 (5=80-100%)	5 (5=80-100%)	5 (5=80-100%)	5 (5=80-100%)	4 (4=60-79%)	4 (4=60-79%)	5 (5=80-100%)	5 (5=80-100%)
Cc1c(Cl)c(C(=O)Nc2nnnn2C)nn(C)c1=O [Compound 1.007]	5 (5=80-100%)	5 (5=80-100%)	5 (5=80-100%)	5 (5=80-100%)	5 (5=80-100%)	5 (5=80-100%)	5 (5=80-100%)	5 (5=80-100%)	5 (5=80-100%)	5 (5=80-100%)	5 (5=80-100%)	5 (5=80-100%)
Cn1nnnc1NC(=O)c1nn(C)c(=O)c(-c2ccc(Cl)cc2Cl)c1Cl [Compound 1.011]	3 (3=40-59%)	5 (5=80-100%)	4 (4=60-79%)	5 (5=80-100%)	5 (5=80-100%)	5 (5=80-100%)	5 (5=80-100%)	5 (5=80-100%)	3 (3=40-59%)	5 (5=80-100%)	5 (5=80-100%)	5 (5=80-100%)
COc1ccc(-c2c(Cl)c(C(=O)Nc3nnnn3C)nn(C)c2=O)cc1 [Compound 1.016]	5 (5=80-100%)	5 (5=80-100%)	4 (4=60-79%)	5 (5=80-100%)	5 (5=80-100%)	5 (5=80-100%)	5 (5=80-100%)	5 (5=80-100%)	1 (1=0-19%)	5 (5=80-100%)	5 (5=80-100%)	5 (5=80-100%)
Cn1nnnc1NC(=O)c1nn(C)c(=O)c(-c2cccc(C(F)(F)F)c2)c1Cl [Compound 1.030]	5 (5=80-100%)	5 (5=80-100%)	4 (4=60-79%)	5 (5=80-100%)	5 (5=80-100%)	5 (5=80-100%)	5 (5=80-100%)	5 (5=80-100%)	2 (2=20-39%)	5 (5=80-100%)	5 (5=80-100%)	5 (5=80-100%)
Cn1nnnc1NC(=O)c1nn(C)c(=O)c(-c2ccc(C(F)(F)F)cc2)c1Cl [Compound 1.023]	2 (2=20-39%)	5 (5=80-100%)	2 (2=20-39%)	5 (5=80-100%)	5 (5=80-100%)	5 (5=80-100%)	4 (4=60-79%)	5 (5=80-100%)	2 (2=20-39%)	5 (5=80-100%)	5 (5=80-100%)	5 (5=80-100%)

Reference: patent publication US9701662B2, “Herbicidal compounds” (Syngenta Participations AG, priority 2014, dated 2017)
